Laboratory results as given in patent US8129399B2, “Aminopyrimidines useful as kinase inhibitors” (Vertex Pharmaceuticals Incorporated, priority 2005, dated 2012).
Like-named read-outs stand apart in the source and are kept apart here.

What was measured:
[1] = target: Aurora-1 (Aurora B) (Homo sapiens, UniProt Q96GD4); test: Aurora-1 (Aurora B) inhibition assay (radiometric); type: biochemical
Experimental: An assay buffer solution was prepared which consisted of 25 mM HEPES (pH 7.5), 10 mM MgCl2, 0.1% BSA and 10% glycerol. […] To 22 μL of the Aurora-B solution, in a 96-well plate, was added 2 μl of a compound stock solution in DMSO and the mixture allowed to equilibrate for 10 minutes at 25° C. The enzyme reaction was initiated by the addition of 16 μl stock [γ-^33P]-ATP solution (˜20 nCi/μL) prepared in assay buffer, to a final assay concentration of 800 μM. The reaction was stopped after 3 hours by the addition of 16 μL 500 mM phosphoric acid and the levels of ^33P incorporation into the peptide substrate were determined by the following method.
A phosphocellulose 96-well plate (Millipore, Cat no. MAPHNOB50) was pre-treated with 100 μL of a 100 mM phosphoric acid prior to the addition of the enzyme reaction mixture (40 μL). The solution was left to soak on to the phosphocellulose membrane for 30 minutes and the plate subsequently washed four times with 200 μL of a 100 mM phosphoric acid. […] Levels of non-enzyme catalyzed background radioactivity were determined by adding 16 μL of the 500 mM phosphoric acid to control wells, containing all assay components (which acts to denature the enzyme), prior to the addition of the [γ-^33P]-ATP solution. Levels of enzyme catalyzed ^33P incorporation were calculated by subtracting mean background counts from those measured at each inhibitor concentration. […] Ki values were calculated from initial rate data by non-linear regression using the Prism software package (Prism 3.0, Graphpad Software, San Diego, Calif.).

[2] = target: T1, Aurora-2 (Aurora A) (Homo sapiens, UniProt O14965); test: Aurora-2 (Aurora A) inhibition assay, coupled enzyme; type: biochemical
T1 sequence (O14965 1-403): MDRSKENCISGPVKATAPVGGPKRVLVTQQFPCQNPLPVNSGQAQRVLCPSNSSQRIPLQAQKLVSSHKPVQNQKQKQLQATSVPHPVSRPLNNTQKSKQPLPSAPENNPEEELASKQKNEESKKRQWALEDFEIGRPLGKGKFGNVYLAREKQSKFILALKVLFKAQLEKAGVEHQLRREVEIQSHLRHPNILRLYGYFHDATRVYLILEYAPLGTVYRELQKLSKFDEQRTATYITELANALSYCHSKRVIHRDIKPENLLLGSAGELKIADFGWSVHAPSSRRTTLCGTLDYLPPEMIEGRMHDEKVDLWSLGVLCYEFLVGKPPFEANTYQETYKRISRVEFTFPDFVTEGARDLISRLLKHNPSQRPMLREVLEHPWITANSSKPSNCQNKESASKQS
Experimental: Assays were carried out in a mixture of 100 mM Hepes (pH7.5), 10 mM MgCl2, 1 mM DTT, 25 mM NaCl, 2.5 mM phosphoenolpyruvate, 300 μM NADH, 30 μg/ml pyruvate kinase and 10 μg/ml lactate dehydrogenase. […] Assays were carried out at 30° C. and in the presence of 40 nM Aurora-2.
An assay stock buffer solution was prepared containing all of the reagents listed above, with the exception of Aurora-2 and the test compound of interest. […] The plate was preincubated for 10 minutes at 30° C. and the reaction initiated by addition of 10 μl of Aurora-2. Initial reaction rates were determined with a Molecular Devices SpectraMax Plus plate reader over a 10 minute time course. IC50 and Ki data were calculated from non-linear regression analysis using the Prism software package (GraphPad Prism version 3.0cx for Macintosh, GraphPad Software, San Diego Calif., USA).

[3] = target: JAK-2 (Homo sapiens, UniProt O60674); test: JAK2 inhibition assay; type: biochemical; conditions: 12 μM ATP
Sequence of JAK-2 (O60674 whole entry, species assumed): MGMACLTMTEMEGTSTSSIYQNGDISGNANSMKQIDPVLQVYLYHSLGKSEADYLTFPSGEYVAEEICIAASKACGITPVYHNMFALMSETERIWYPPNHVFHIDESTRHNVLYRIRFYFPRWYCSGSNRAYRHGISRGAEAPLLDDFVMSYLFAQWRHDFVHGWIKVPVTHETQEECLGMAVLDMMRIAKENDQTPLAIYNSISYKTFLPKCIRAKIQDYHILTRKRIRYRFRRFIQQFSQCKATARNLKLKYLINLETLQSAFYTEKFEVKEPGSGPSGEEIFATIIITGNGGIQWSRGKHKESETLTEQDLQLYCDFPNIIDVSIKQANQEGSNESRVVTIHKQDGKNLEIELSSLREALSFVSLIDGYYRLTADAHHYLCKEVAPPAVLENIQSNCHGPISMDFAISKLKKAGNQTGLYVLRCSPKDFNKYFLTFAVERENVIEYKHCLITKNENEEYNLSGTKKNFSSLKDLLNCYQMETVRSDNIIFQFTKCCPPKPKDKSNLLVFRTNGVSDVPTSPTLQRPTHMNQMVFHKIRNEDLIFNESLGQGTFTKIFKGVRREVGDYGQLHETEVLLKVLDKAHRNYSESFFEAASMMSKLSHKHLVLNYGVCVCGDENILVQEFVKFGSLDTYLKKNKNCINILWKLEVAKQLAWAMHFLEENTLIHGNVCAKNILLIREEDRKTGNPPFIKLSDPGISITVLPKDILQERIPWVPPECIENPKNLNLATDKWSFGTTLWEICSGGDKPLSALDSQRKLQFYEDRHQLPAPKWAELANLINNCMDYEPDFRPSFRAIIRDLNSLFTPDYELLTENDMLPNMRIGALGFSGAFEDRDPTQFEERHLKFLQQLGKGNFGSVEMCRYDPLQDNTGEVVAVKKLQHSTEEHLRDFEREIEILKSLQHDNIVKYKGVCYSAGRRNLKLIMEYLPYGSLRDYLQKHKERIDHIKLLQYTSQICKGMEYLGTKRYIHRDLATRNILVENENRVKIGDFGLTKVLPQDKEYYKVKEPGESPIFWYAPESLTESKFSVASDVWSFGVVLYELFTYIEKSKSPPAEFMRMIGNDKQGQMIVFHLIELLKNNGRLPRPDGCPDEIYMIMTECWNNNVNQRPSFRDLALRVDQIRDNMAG

[4] = test system: Colo205 cells; test: Colo205 cell proliferation, 3H thymidine incorporation; type: cell-based; conditions: Homo sapiens
Experimental: Colo205 cells were seeded in 96 well plates and serially diluted compound was added to the wells in duplicate. Control groups included untreated cells, the compound diluent (0.1% DMSO alone) and culture medium without cells.
To measure proliferation, 3 h prior to the end of the experiment 0.5 μCi of 3H thymidine was added to each well. Cells were then harvested and the incorporated radioactivity counted on a Wallac microplate beta-counter. Cell viability was assessed using Promega CellTiter 96AQ to measure MTS conversion. Dose response curves were calculated using either Prism 3.0 (GraphPad) or SoftMax Pro 4.3.1 LS (Molecular Devices) software.

[5] = 800 μM ATP, read-out: Aurora B Ki
[6] = 400 μM ATP, 40 nM Aurora-2, read-out: Aurora A Ki
[7] = COLO 205, read-out: Colo205 inh 3H-Thy incorporation after 72 hours IC50 (uM)
[8] = COLO 205, read-out: Colo205 inh 3H-Thy incorporation after 96 hours IC50 (uM)

Sequence of Aurora-1 (Aurora B) (Q96GD4 whole entry): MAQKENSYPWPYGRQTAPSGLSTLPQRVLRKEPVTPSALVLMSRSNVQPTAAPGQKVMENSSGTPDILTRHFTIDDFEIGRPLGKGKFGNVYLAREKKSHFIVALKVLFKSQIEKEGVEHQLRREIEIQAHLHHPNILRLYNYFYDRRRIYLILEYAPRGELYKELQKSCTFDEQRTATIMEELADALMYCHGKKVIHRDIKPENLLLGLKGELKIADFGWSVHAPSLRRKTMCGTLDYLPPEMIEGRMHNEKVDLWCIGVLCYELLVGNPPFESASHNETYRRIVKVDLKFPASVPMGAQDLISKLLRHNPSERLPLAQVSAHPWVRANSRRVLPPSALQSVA

SMILES | Ki [1, 5] [nM] | Ki [2, 6] [nM] | Ki [3] [nM] | IC50 [4, 7] [µM] | IC50 [4, 8] [µM] | Ki [1] [nM] | Ki [2] [nM]
CCC(=O)Nc1ccc(Sc2nc(Nc3cc(C)n[nH]3)cc(N3CC(O)(C4CC4)C3)n2)cc1 [Compound I-2] | 7.6 | 0.39 | 26 | 0.026 | 0.026 |  | 
CCC(=O)Nc1ccc(Sc2nc(Nc3cc(C)n[nH]3)cc(N3CC(O)(C4CCCC4)C3)n2)cc1 [Compound I-3] | 6.5 | 0.67 | 34 | 0.002 | 0.004 |  | 
CCC(=O)Nc1ccc(Sc2nc(Nc3cc(C)n[nH]3)cc(N3CC(O)(C(C)C)C3)n2)cc1 [Compound I-5] | 14 | 1.2 | 26 |  | 0.033 |  | 
CCC(=O)Nc1ccc(Sc2nc(Nc3cc(C)n[nH]3)cc(N3CC(O)(C(C)CC)C3)n2)cc1 (stereo not drawn) [Compound I-6] |  |  | 44 |  | 0.024 | 6.2 | 0.77
CCC(=O)Nc1ccc(Sc2nc(Nc3cc(C4CC4)[nH]n3)cc(N3CC(O)(C4CC4)C3)n2)cc1 [Compound I-7] | < 6 |  | 23 |  | 0.022 |  | 0.36
Cc1cc(Nc2cc(N3CC(O)(C4CC4)C3)nc(Sc3ccc(NC(=O)C4CC4)cc3)n2)n[nH]1 [Compound I-8] | 7.1 | 0.87 | 41 | 0.04 | 0.033 |  | 
Cc1cc(Nc2cc(N3CC(O)(C4CC4)C3)nc(Sc3ccc(NC(=O)C4CCCC4)cc3)n2)[nH]n1 [Compound I-9, N-(4-((4-(3-methyl-1H-pyrazol-5-ylamino)-6-(3-cyclopropyl-3-hydroxyazetidin-1-yl)pyrimidin-2-yl)sulfanyl)phenyl)cyclopentanecarboxamide] | < 6 | 0.43 | 22 |  | 0.016 |  | 
O=C(Nc1ccc(Sc2nc(Nc3cc(C4CC4)[nH]n3)cc(N3CC(O)(C4CC4)C3)n2)cc1)C1CC1 [Compound I-10] | 7 |  | 54 |  | 0.042 |  | 0.42
Cc1cc(Nc2cc(N3CC(O)(C4CC4)C3)nc(Sc3ccc(NC(=O)C4CC4)cc3F)n2)[nH]n1 [Compound I-11, N-(4-((4-(3-methyl-1H-pyrazol-5-ylamino)-6-(3-cyclopropyl-3-hydroxyazetidin-1-yl)pyrimidin-2-yl)sulfanyl)-3-fluorophenyl)cyclopropanecarboxamide] | 9 | 0.41 | 15 |  | 0.028 |  | 
Cc1cc(Nc2cc(N3CC(O)(C4CC4)C3)nc(Sc3ccc(NC(=O)C4CC4(F)F)cc3)n2)[nH]n1 (stereo not drawn) [Compound I-12] | 3 | 0.35 | 2.9 | 0.019 |  |  | 
Cc1cc(Nc2cc(N3CC(F)(C4CC4)C3)nc(Sc3ccc(NC(=O)C4CC4)cc3)n2)n[nH]1 [Compound I-13] | 22 | 1.1 | 110 | 0.072 | 0.039 |  | 
Cc1cc(Nc2cc(N3CC(F)(C4CC4)C3)nc(Sc3ccc(NC(=O)CC(F)(F)F)cc3)n2)[nH]n1 [Compound I-14, N-(4-(4-(3-methyl-1H-pyrazol-5-ylamino)-6-(3-cyclopropyl-3-fluoroazetidin-1-yl)pyrimidin-2-ylthio)phenyl)-3,3,3-trifluoropropanamide] | 6.8 | 0.35 | 11 | 0.006 | 0.006 |  | 
Cc1cc(Nc2cc(N3CC(F)(C4CC4)C3)nc(Sc3ccc(NC(=O)C4CC4)cc3F)n2)n[nH]1 [Compound I-18] |  |  | 360 | 0.027 |  | 18 | 0.35
Cc1cc(Nc2cc(N3CC(F)(C4CC4)C3)nc(Sc3ccc(NC(=O)CC4CC4)cc3)n2)[nH]n1 [Compound I-19] | 21 |  | 130 | 0.05 |  |  | 0.44
Cc1cc(Nc2cc(N3CC(F)(C4CC4)C3)nc(Sc3ccc(NC(=O)C4CC4(F)F)cc3)n2)[nH]n1 (stereo not drawn) [Compound I-20] | 18 | 0.77 | 51 | 0.012 |  |  | 
Cc1cc(Nc2cc(N3CC(F)(C4CC4)C3)nc(Sc3ccc(NC(=O)CC(F)(F)F)nc3)n2)[nH]n1 [Compound I-21, N-(5-(4-(3-methyl-1H-pyrazol-5-ylamino)-6-(3-cyclopropyl-3-fluoroazetidin-1-yl)pyrimidin-2-ylthio)pyridin-2-yl)-3,3,3-trifluoropropanamide] | 9.5 |  | 28 | 0.02 |  |  | 0.44
